# Key:
# [1] = target: Survival motor neuron protein (Mus musculus) (UniProt P97801); test: Inhibition of survival motor neuron protein in mouse C2C12 cells assessed as reduction in phospho-sites occupancy at 4 uM after 5 hrs by SILAC based LC-MS/MS analysis relative to control; type: cell-based
# [2] = target: Catenin alpha-1 (Mus musculus) (UniProt P26231); test: Inhibition of catenin alpha-1 in mouse C2C12 cells assessed as reduction in phospho-sites occupancy at 4 uM after 5 hrs by SILAC based LC-MS/MS analysis relative to control; type: cell-based
# [3] = target: Eukaryotic translation initiation factor 2 subunit 2 (Mus musculus) (UniProt Q99L45); test: Inhibition of eukaryotic translation initiation factor 2 subunit 2 in mouse C2C12 cells assessed as reduction in phospho-sites occupancy at 4 uM after 5 hrs by SILAC based LC-MS/MS analysis relative to control; type: cell-based
# [4] = target: Nucleolar RNA helicase 2 (Mus musculus) (UniProt Q9JIK5); test: Inhibition of Ddx21 in mouse C2C12 cells assessed as reduction in phospho-sites occupancy at 4 uM after 5 hrs by SILAC based LC-MS/MS analysis relative to control; type: cell-based
# [5] = target: Autophagy-related protein 9A (Mus musculus) (UniProt Q68FE2); test: Inhibition of Atg9a in mouse C2C12 cells assessed as reduction in phospho-sites occupancy at 4 uM after 5 hrs by SILAC based LC-MS/MS analysis relative to control; type: cell-based
# [6] = target: Serine/threonine-protein kinase PAK 1 (Mus musculus) (UniProt O88643); test: Inhibition of Pak1 in mouse C2C12 cells assessed as reduction in phospho-sites occupancy at 4 uM after 5 hrs by SILAC based LC-MS/MS analysis relative to control; type: cell-based
# [7] = target: Dihydropyrimidinase-related protein 3 (Mus musculus) (UniProt Q62188); test: Inhibition of Dihydropyrimidinase-related protein 3 in mouse C2C12 cells assessed as reduction in phospho-sites occupancy at 4 uM after 5 hrs by SILAC based LC-MS/MS analysis relative to control; type: cell-based
# [8] = target: Lamina-associated polypeptide 2, isoforms beta/delta/epsilon/gamma (Mus musculus) (UniProt Q61029); test: Inhibition of LAP2B epsilon in mouse C2C12 cells assessed as reduction in phospho-sites occupancy at 4 uM after 5 hrs by SILAC based LC-MS/MS analysis relative to control; type: cell-based
# [9] = target: Phosducin-like protein 3 (Mus musculus) (UniProt Q8BVF2); test: Inhibition of Phosducin-like protein 3 in mouse C2C12 cells assessed as reduction in phospho-sites occupancy at 4 uM after 5 hrs by SILAC based LC-MS/MS analysis relative to control; type: cell-based
# [10] = test system: Golgi-specific brefeldin A-resistance guanine nucleotide exchange factor 1 (Mus musculus); test: Inhibition of Gbf1 in mouse C2C12 cells assessed as reduction in phospho-sites occupancy at 4 uM after 5 hrs by SILAC based LC-MS/MS analysis relative to control
# Sequence of Dihydropyrimidinase-related protein 3 (Mus musculus) (Q62188 whole entry, canonical isoform): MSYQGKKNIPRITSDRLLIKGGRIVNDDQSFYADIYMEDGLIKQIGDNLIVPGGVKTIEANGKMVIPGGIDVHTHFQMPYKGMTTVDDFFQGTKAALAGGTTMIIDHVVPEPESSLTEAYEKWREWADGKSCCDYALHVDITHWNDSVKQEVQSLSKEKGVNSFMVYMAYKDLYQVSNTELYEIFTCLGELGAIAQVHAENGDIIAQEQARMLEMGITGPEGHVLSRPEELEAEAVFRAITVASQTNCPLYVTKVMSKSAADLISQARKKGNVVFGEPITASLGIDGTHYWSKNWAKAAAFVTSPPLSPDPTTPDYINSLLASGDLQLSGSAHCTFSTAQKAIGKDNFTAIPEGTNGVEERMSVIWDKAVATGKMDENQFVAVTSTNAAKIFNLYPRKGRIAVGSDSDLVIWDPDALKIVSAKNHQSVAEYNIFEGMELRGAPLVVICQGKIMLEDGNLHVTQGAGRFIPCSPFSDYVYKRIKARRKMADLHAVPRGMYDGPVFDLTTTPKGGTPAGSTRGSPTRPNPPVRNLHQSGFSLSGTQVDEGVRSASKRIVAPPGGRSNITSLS
# Sequence of Autophagy-related protein 9A (Mus musculus) (Q68FE2 whole entry): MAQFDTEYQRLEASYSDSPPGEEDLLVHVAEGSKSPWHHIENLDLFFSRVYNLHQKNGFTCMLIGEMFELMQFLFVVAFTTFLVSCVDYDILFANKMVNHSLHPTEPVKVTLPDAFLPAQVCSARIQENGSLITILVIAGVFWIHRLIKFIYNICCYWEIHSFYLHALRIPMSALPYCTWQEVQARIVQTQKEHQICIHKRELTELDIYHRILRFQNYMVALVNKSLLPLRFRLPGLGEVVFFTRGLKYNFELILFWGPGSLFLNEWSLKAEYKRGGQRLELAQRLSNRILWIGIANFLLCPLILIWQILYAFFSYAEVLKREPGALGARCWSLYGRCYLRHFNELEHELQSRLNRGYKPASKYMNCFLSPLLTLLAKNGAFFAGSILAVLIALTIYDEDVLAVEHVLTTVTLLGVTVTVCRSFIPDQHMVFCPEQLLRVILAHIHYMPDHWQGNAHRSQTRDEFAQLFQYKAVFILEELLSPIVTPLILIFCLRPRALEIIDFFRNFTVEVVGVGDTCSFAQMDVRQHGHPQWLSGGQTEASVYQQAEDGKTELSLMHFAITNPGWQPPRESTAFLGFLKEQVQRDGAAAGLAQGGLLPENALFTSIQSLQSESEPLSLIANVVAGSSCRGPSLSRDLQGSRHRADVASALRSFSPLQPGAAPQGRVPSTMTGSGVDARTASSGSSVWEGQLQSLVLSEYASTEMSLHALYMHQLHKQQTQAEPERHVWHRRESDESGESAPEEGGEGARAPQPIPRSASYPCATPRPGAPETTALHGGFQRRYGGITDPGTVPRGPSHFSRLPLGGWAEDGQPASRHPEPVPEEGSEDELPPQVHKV
# Sequence of Lamina-associated polypeptide 2, isoforms beta/delta/epsilon/gamma (Mus musculus) (Q61029 whole entry, canonical isoform): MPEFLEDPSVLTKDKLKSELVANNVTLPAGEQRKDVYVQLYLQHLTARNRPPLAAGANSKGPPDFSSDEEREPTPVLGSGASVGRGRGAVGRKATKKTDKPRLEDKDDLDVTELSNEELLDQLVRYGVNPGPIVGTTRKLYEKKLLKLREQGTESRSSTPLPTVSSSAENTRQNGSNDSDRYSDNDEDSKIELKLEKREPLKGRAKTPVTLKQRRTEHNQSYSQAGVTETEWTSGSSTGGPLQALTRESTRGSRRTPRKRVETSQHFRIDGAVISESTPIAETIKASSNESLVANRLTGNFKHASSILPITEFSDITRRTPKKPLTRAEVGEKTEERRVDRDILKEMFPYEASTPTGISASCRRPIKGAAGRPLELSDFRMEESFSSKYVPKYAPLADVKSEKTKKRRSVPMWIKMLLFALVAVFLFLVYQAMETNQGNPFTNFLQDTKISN
# Sequence of Phosducin-like protein 3 (Mus musculus) (Q8BVF2 whole entry): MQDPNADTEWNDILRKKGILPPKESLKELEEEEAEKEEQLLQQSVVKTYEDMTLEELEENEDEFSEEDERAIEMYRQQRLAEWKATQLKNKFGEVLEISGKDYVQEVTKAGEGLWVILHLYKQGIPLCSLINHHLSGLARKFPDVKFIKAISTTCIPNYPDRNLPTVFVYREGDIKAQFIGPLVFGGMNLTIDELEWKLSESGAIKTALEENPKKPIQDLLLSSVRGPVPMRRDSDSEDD
# Sequence of Catenin alpha-1 (Mus musculus) (P26231 whole entry): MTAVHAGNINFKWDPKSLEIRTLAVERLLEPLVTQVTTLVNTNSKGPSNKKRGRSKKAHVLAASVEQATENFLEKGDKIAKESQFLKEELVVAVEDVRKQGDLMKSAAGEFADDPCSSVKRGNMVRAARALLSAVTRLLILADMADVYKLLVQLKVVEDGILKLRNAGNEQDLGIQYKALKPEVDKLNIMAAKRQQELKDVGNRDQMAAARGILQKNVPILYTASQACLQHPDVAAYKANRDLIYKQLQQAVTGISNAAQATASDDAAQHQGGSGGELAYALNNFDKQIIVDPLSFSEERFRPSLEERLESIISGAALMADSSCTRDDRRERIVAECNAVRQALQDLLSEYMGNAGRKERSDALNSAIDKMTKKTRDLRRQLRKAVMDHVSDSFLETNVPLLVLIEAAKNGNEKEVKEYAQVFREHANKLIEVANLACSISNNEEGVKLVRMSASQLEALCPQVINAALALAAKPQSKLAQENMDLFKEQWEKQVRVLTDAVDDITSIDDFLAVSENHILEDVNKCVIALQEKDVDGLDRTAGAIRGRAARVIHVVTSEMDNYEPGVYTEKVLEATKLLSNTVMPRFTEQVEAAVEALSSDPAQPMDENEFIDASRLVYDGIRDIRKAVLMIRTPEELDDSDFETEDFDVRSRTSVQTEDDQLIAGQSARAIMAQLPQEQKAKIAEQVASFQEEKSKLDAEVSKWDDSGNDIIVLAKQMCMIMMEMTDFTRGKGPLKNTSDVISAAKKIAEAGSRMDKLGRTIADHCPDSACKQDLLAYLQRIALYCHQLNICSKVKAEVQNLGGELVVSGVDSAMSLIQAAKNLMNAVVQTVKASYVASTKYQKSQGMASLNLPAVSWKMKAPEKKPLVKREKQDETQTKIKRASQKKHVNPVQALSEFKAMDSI
# Sequence of Nucleolar RNA helicase 2 (Mus musculus) (Q9JIK5 whole entry): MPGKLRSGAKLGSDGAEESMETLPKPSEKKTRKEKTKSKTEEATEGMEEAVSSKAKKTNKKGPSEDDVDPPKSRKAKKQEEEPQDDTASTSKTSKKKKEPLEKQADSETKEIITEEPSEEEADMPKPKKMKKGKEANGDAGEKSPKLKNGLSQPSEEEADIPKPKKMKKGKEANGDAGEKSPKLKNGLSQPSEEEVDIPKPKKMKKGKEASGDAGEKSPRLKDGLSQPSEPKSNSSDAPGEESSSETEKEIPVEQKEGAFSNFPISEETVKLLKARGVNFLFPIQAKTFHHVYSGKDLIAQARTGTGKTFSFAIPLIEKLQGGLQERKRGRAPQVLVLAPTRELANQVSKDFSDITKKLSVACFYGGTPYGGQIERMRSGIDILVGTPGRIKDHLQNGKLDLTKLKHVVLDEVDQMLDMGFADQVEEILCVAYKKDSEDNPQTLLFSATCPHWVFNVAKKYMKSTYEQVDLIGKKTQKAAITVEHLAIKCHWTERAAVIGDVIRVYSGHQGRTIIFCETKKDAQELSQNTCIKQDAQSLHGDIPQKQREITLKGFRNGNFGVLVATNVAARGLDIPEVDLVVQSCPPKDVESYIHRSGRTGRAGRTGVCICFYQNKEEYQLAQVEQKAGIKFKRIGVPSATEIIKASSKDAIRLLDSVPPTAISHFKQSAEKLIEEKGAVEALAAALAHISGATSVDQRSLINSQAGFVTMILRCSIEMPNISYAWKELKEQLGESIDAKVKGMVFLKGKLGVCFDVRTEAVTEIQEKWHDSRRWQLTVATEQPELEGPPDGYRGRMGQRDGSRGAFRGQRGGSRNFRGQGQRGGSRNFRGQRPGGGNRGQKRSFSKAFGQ
# Sequence of Serine/threonine-protein kinase PAK 1 (Mus musculus) (O88643 whole entry): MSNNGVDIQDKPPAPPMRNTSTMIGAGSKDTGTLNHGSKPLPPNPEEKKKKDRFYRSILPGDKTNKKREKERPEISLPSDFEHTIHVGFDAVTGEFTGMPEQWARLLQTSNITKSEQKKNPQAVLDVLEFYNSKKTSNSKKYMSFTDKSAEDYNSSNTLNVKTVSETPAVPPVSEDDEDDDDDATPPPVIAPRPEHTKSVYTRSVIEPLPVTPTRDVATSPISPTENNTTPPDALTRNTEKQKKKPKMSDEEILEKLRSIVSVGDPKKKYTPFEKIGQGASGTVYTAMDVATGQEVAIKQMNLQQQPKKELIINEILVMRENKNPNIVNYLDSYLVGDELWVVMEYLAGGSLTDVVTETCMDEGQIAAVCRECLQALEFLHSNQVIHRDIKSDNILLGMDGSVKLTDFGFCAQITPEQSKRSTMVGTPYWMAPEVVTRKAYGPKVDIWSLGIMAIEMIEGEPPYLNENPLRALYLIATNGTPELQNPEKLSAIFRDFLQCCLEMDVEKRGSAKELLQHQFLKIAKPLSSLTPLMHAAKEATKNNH
# Sequence of Eukaryotic translation initiation factor 2 subunit 2 (Mus musculus) (Q99L45 whole entry): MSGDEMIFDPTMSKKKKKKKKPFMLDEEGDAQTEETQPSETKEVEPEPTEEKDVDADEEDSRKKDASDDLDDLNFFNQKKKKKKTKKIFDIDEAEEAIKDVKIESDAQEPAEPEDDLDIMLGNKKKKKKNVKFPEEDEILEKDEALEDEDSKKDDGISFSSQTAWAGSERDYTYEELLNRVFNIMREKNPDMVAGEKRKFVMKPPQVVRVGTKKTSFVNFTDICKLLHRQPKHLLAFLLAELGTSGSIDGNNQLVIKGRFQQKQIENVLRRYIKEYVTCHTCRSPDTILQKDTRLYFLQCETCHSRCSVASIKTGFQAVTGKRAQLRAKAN
# Sequence of Survival motor neuron protein (Mus musculus) (P97801 whole entry): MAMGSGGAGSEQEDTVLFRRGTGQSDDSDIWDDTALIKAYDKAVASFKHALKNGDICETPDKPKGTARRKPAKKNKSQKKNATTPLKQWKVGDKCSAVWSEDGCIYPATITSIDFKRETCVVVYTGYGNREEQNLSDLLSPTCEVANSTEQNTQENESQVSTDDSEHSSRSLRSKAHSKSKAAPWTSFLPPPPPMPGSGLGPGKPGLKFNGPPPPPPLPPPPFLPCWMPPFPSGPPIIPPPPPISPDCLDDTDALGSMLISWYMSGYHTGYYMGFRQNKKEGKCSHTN
compound,measurement,setting,value
COc1cc(/C=N/n2c(SC)nnc2-c2ccccc2)c(Br)cc1O,fold change (FC),[1],1.52
same,fold change (FC),[2],1.59
same,fold change (FC),[3],1.6
same,fold change (FC),[4],1.66
same,fold change (FC),[5],1.8
same,fold change (FC),[6],1.96
same,fold change (FC),[7],3.25
same,fold change (FC),[8],3.86
same,fold change (FC),[9],4.01
same,fold change (FC),[10],2.55

# Source: ChEMBL document CHEMBL4813950, “Comparing the efficacy and selectivity of Ck2 inhibitors. A phosphoproteomics approach” (Eur J Med Chem, 2021)
